In patent US6923951B2, “Non-invasive localization of a light-emitting conjugate in a mammal” (priority 1994, dated 2005):

Columns and labels:
SL1344lux Salmonella = test: Effects of ciprofloxacin treatment on bioluminescence from SL1344lux Salmonella in orally inoculated mice; type: in vivo, Salmonella typhimurium
Experimental: Effects of Ciprofloxacin on Salmonella Infection. […] Mice are orally inoculated with SL1344lux and treated with […] of ciprofloxacin, an antibiotic effective against Salmonella infections. The mice are imaged at selected time periods following treatment, and the extent of infection is quantitated by measuring photon emission. Photon emission in treated mice is compared to values before the initiation of treatment, and to values from control mice that had been infected, but not treated. Results from one such experiment are shown in FIGS. 11A, 11B, 11C, 11D, and 11E and discussed in Example 10.
Animals or objects to be imaged were immobilized in a light-tight box containing a door and a charge-coupled device (CCD) camera with a two stage microchannel intensifier head (model C2400-40, Hamamatsu). The camera was attached, via cables leading out of the box, to an “ARGUS 50” image processor (Hamamatsu).
Bioluminescence images were generated by integrating photons for a selected period of time, typically 5 minutes. […]
FIGS. 11B and 11D show composite images of representative animals from the control and treated groups, respectively, immediately before initiation of treatment of the experimental group. […] The total number of photons detected over the abdominal area were determined, normalized to the value at t=0, and plotted in FIG. 11A with respect to time post-treatment.

HIV LTR = test: DMSO induction of HIV LTR-driven luciferase expression in transgenic mice; type: in vivo, mouse
Description: Transgenic mice containing a construct composed of the regulatory portion of the HIV LTR (U3 region) upstream of the coding sequence of the firefly luciferase gene were generated and evaluated for the emission of photons after transmission through tissues. A diagram of the construct is shown at the bottom of FIG. 13. Numbers along the construct indicate nucleotide positions relative to the start of transcription. Sequences matching known motifs of cellular transcription factors are indicated with the names of the factors. Transcription from the HIV LTR was activated in the right ear of each two animals with a single topical application of dimethyl sulfoxide (DMSO). The animal on the left in FIG. 13 was given 150 μl of an aqueous solution of the substrate luciferin (50 mg/ml) via intraperitoneal (i.p.) injection. The animal on the right was not given substrate. 20 min. post treatment with substrate the animals were imaged as described for the plate in FIG. 12 with a 20 min. integration time. […] This technology allows for the temporal and spatial analyses of transcriptional activity in living animals.
The left half of the shaved dorsal surface of the transgenic animals and the left ear were treated twice daily for two days with DMSO to activate expression of the HIV-1 LTR. Luciferin was applied topically over the entire surface of the back and both ears, and animals were imaged immediately after addition of substrate.
This signal is assumed to be due to ingestion of DMSO during grooming (FIG. 17).

[1] = tested on: dermal cells in transgenic mice
Experimental: In order to optimize delivery of substrate, the substrate was topically delivered to dermal cells. The HIV LTR was induced in the skin of mice with twice daily treatments of DMSO over the entire surface of the back and the right ear for two consecutive days. Substrate was applied to the skin in solutions prepared in DMSO. Concentrations included 200 mM, 100 mM, 50 mM, 25 mM, and 12.5 mM. 5 μl of each concentration were spotted, in quadruplicate, on the backs using a multichannel pipette with the highest concentrations near the head. 5 μl of the 50 mM solution was applied to each ear. 2 min. after application the animal was imaged as described in FIG. 12. […] Solutions of 25% H2O in DMSO to 100% H2O were tested.
The experiment of induction of luciferase expression in ears and systemic luciferin delivery of Example 14 was repeated with topical administration of substrate in 100% DMSO (FIG. 15). […] See, FIGS. 13 and 15.

In the case of O=C(O)c1cn(C2CC2)c2cc(N3CCNCC3)c(F)cc2c1=O [ciprofloxacin], the “Bioluminescence over the abdomen” value (SL1344lux Salmonella; Balb/c mice orally inoculated with SL1344lux, at 8 days p.i. 100 mg ciprofloxacin hydrochloride i.p. (3 mg/kg body weight), 5.5 h after initiation of treatment) is reported as “reduced to undetectable levels” and the “Infection (photon emission) compared to time zero and to untreated control mice” value (SL1344lux Salmonella; mice orally inoculated with SL1344lux, treated with 100 mg of ciprofloxacin) is reported as “significantly reduced”.

With C[S+](C)[O-] [DMSO, dimethyl sulfoxide] the “Bioluminescence from internal tissues” value (HIV LTR; animals treated with DMSO on one ear only) was “Bioluminescence was detectable from the abdomens”, the “Bioluminescence after unilateral DMSO treatment” value (HIV LTR; left half of shaved dorsal surface and left ear treated twice daily for two days, luciferin topical over back and both ears) was “Unilateral emission of bioluminescence corresponding to the induced region” and the “Bioluminescence from the DMSO-induced ear” value (HIV LTR; single topical application of DMSO on right ear, luciferin 150 μl of 50 mg/ml i.p., imaged 20 min. post substrate) was “light emission over the right ear”.

With O=C(O)[C@H]1CSC(c2nc3ccc(O)cc3s2)=N1 [luciferin] the “Bioluminescence from spots containing 200 mM luciferin” value ([1]; 5 μl spots in DMSO on DMSO-induced back skin) was “roughly equivalent to that from the 100 mM spots”, the “Bioluminescent response versus topical luciferin concentration” value ([1]; 5 μl spots of luciferin in DMSO on DMSO-induced back skin, imaged 2 min. after application) was “increase linearly over the concentrations from 12.5 mM to 100 mM” and the “Bioluminescence from solutions of luciferin containing water” value ([1]; mouse, in vivo) was “no detectable bioluminescence”. For the same compound, the “Time of peak light emission, systemic substrate” value ([1]; mouse, in vivo) was 20 to 30 min and the “Time of peak light emission, topical substrate” value ([1]; mouse, in vivo) was “immediately after topical treatment”.
